The source of these data is patent US12065456B2, “Boron-containing pharmacophore” (MASSACHUSETTS INSTITUTE OF TECHNOLOGY, priority 2019, dated 2024).

Read-outs that look alike come from different tables or passages of the source.

A short description of data set [1]: Oxidation of boronic acids by hydrogen peroxide, continuous UV-absorbance assay. It counts as physicochemical. The conditions noted are these: for kmonoanion (rel) / kmonoanion: experimental; for kmonoanion (rel): relative to PBA; for kmonoanion: second-order rate constant for oxidation of monoanionic tetrahedral state; for kobs: second-order rate constant of oxidation by hydrogen peroxide, physiological pH. From the text: Hydrogen peroxide is known to be the major reactive oxygen species in humans. The oxidation of phenylboronic acids by aqueous hydrogen peroxide yields a phenol and boric acid. […] The oxidation rates were first-order with respect to hydrogen peroxide and each boronic acid. The ensuing second-order rate constants varied with pH and were half-maximal for PBA and 2-HMPBA when pH=pKa. Oxidation rates increase in a pH-dependent manner after and before a pH-independent regime (FIG. 2). This observation is consistent with the existence of two pH-independent rate constants, k1 and k2. Whereas the oxidation rates of PBA and 2-HMPBA at physiological pH are similar to those for biological thiols, the comparative stability of CPBA to oxidation is unexpected (Table 1).
For PBA, 2-HMPBA, and 2-CPBA, the transition from a neutral trigonal state to a monoanionic tetrahedral state occurs when the pH surpasses the pKa (FIG. 3). […] The oxaborolone is differentiated by its existence as a monoanionic tetrahedral species above pH 1. The second-order rate constants for the oxidation for the monoanionic tetrahedral states of PBA, 2-HMPBA, 2-CPBA, and 2-CMPBA ((2-carboxymethyl)-phenylboronic acid) are listed in Table 2.

The target of a further data set is T1, ribonuclease A (RNase A) (Bos taurus, UniProt P61823).
T1 sequence (P61823 27-150): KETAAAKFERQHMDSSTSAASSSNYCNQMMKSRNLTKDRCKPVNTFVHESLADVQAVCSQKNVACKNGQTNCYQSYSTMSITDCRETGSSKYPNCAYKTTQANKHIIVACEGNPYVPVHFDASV
Briefly: Inhibition of catalysis by ribonuclease A. Type of data set: biochemical. The following applies: pH 6.0, substrate 6-FAM-(dA)rU(dA)2-6-TAMRA. How it is done:
The catalytic activity of ribonuclease A (RNase A) was assayed using 6-FAM-(dA)rU(dA)2-6-TAMRA as a substrate (Kelemen, B. R.; et al. Nucleic Acids Res. 1999, 27, 3696-3701). Assays were performed in 50 mM MES-NaOH buffer, pH 6.0, containing NaCl (100 mM) and RNase A (1 pM) in 200-μL solutions in a black, flat-bottomed 96-well plate and with a Tecan M1000 plate reader. An aqueous solution of 2-CPBA was prepared by dilution from a 500 mM stock that had its pH adjusted to that of the assay buffer. Initial velocities were measured from <5% turnover. Velocities were fitted to the 4-parameter logistic equation using Prism software from GraphPad. Uninhibited velocities were used to constrain the top parameter.

In data set [2] the target is T2, calf intestinal phosphatase (CIP) (Bos taurus, UniProt P19111).
T2 construct: purchased Promega (Fitchburg, WI)
T2 sequence (P19111 20-506): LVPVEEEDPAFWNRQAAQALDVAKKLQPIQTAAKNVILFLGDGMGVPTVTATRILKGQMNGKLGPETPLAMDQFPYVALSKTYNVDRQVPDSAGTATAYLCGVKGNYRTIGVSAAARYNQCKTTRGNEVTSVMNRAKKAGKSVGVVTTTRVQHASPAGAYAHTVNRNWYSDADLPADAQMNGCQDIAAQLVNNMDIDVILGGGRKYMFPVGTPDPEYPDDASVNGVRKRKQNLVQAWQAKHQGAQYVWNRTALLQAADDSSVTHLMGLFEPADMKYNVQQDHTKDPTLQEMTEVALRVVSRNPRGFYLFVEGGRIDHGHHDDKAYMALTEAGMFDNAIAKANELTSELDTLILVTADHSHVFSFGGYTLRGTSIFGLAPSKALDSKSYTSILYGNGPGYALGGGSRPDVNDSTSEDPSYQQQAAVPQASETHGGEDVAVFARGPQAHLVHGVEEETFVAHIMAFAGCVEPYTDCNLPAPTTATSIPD
As to the kind of experiment: Inhibition of calf intestinal phosphatase, 4-nitrophenyl phosphate substrate. It counts as biochemical. The following applies: pH 7.5, substrate 1.0 mM. How it is done:
(§1) 2-CPBA was tested as an inhibitor of pig liver esterase (PLE). This test used 4-nitrophenyl acetate (PNPA) as a substrate. In addition, 2-CPBA was tested as an inhibitor of calf intestinal phosphatase (CIP). This test used 4-nitrophenyl phosphate. Substrates and PLE (15 units/mg) were obtained from Sigma-Aldrich (St. Louis, MO) as dry powders. CIP was obtained from Promega (Fitchburg, WI) as a solution (1 unit/μL). The hydrolysis of the two chromogenic substrates was monitored with a Tecan M1000 plate reader by measuring the absorbance of the 4-nitrophenol product at a wavelength of 405 nm. Assays were performed in a buffer of 20 mM Tris-HCl buffer, pH 7.5, in a clear, flat bottomed 96-well plate in 200-μL volumes. Solutions for CIP assays contained enzyme (0.003 units/μL) and substrate (1.0 mM). Solutions for PLE assays contained enzyme (0.01 units/mL) and substrate (1.0 mM). Both enzymes were assayed for inhibition by adding 2-CPBA (to a concentration of 0.78-100 mM) from a 250 mM stock solution that had its pH adjusted to that of the assay buffer. Initial velocities were measured by calculating ΔA405 nm over time. Velocities were fitted to the 4-parameter logistic equation with Prism software from GraphPad (San Diego, CA). No enzyme and uninhibited velocities were used to constrain the top and bottom parameters. Values of Ki were 80 mM for CIP and 10 mM for PLE.

The target in another data set is T3, pig liver esterase (PLE) (Sus scrofa, UniProt Q29550).
T3 sequence (Q29550 19-566): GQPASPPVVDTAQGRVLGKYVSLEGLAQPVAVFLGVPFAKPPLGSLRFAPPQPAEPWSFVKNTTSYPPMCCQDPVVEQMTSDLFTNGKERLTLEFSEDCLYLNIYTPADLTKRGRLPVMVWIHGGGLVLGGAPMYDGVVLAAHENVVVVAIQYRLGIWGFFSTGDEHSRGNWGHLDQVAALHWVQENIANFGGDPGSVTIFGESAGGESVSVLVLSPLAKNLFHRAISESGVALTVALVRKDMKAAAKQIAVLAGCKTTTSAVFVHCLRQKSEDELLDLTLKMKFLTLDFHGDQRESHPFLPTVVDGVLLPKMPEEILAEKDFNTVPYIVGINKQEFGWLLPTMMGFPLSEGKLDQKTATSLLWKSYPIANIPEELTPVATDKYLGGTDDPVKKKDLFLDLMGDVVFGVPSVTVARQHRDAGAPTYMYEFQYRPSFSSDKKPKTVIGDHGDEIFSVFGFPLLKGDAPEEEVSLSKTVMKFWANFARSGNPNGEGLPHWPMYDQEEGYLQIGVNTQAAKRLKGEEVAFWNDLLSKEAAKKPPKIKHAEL
As to the kind of experiment: Inhibition of pig liver esterase, 4-nitrophenyl acetate substrate. Type of data set: biochemical. The conditions noted are these: pH 7.5, substrate 1.0 mM. As for the experimental part:
as §1

A short description of data set [3]: Affinity for saccharides, 1H-NMR titration. It counts as binding. From the text:
(§2) PBA and 2-HMPBA are employed often for their ability to form esters with saccharides. As the affinity of boronic acids for saccharides is generally greatest near their pKa value, the low pKa1 of 2-CPBA portends a low affinity. The results of ^1H-NMR titration experiments with D-fructose, D-glucose, and N-acetylneuraminic acid (Neu5Ac) are consistent with this expectation (Table 3).

A short description of data set [4]: Affinity for saccharides, overall comparison. Type of data set: binding.
Description: as §2

The conditions of data set [5]: oxidation of biological thiols, physiological pH; marked with footnote a; cited from earlier work.
Another data set has as its target T4, Transthyretin (TTR) (Homo sapiens, UniProt P02766).
T4 construct: made in house
As to the kind of experiment: Inhibition of transthyretin fibril formation, light-scattering at 400 nm. It counts as biochemical. The following applies: pH 4.4, 96-h incubation at 37° C. As for the experimental part:
TTR was expressed and purified as previously reported (Smith, T. P., et al, J. Med. Chem., 2017, 60, 7820-7834). Inhibition of fibril formation was assayed as previously reported (Smith, et al.). Briefly, TTR (7.2 μM) was incubated with varying ratios of kinetic stabilizers (BOL or tafamidis) in 10 mM sodium phosphate buffer, pH 7.6, containing potassium chloride (100 mM) for 30 min at 37° C. Solutions were 2-fold diluted with 100 mM sodium acetate buffer, pH 4.4, containing potassium chloride (100 mM). Quadruplicate samples were plated in a clear 96-well plate. Fibril formation was assessed by measuring light-scattering at 400 nm immediately following acidification and after a 96-h incubation at 37° C. Data were analyzed with equation 1 below by comparing the change in light-scattering over the incubation with a control containing the protein and no inhibitor. The standard deviation of measurements was propagated through calculation in equation 1.

For `O=C(O)Cc1ccccc1B(O)O` [Compound 2-CMPBA, (2-carboxymethyl)-phenylboronic acid], in data set [1], the “kmonoanion (rel)” value was 0.00088, the kmonoanion was determined as 0.041 M⁻¹ s⁻¹ and the kobs was determined as 0.041 M⁻¹ s⁻¹.
The term IC50 denotes the point on the concentration scale where inhibition reaches its midpoint. As usually defined, the Ki is a dissociation constant, usually derived from enzyme kinetics or from competition with a known ligand. Low readings indicate higher affinity, high ones lower affinity. Consider `O=C(O)c1ccccc1B(O)O` [Compound 2-CPBA, 2-carboxyphenylboronic acid], for which, in data set [1], the “kmonoanion (rel)” value was 0.0000035, the kmonoanion is 0.00016 M⁻¹ s⁻¹ and the kobs is 0.00015 M⁻¹ s⁻¹. Further, the IC50 at ribonuclease A (RNase A) is 27 mM. Further, the Ki in data set [2] amounted to 80 mM. The same molecule displayed a Ki on pig liver esterase (PLE) of 10 mM. In addition, in data set [3], the “D-fructose, Ka” value was 23 ± 2 M⁻¹; the “D-glucose, Ka” value was 1.7 ± 0.1 M⁻¹; the “Neu5Ac, Ka” value was found to be 6.0 ± 0.5 M⁻¹. The “loss in affinity for saccharides versus 2-HMPBA” value in data set [4] (versus 2-HMPBA) was “about 13 fold”. Further, the “loss in affinity for saccharides versus PBA” value in data set [4] (versus PBA) is recorded as “about 4 fold”.
In the case of `CC(=O)N[C@@H](CS)C(=O)O` [N-Acetylcysteine], the kobs in data set [5] was 0.16 M⁻¹ s⁻¹.
As for `OCc1ccccc1B(O)O` [Compound 2-HMPBA, (2-hydroxymethyl)phenylboronic acid], in data set [1], the “kmonoanion (rel)” value was determined as 0.10, the kmonoanion is 4.8 M⁻¹ s⁻¹ and the kobs turned out to be 2.4 M⁻¹ s⁻¹. Further, in data set [3], the “D-fructose, Ka” value turned out to be 336 ± 43 M⁻¹; the “D-glucose, Ka” value amounted to 28 ± 4 M⁻¹; the “Neu5Ac, Ka” value is 43 ± 5 M⁻¹.
As to `N[C@@H](CCC(=O)N[C@@H](CS)C(=O)NCC(=O)O)C(=O)O` [Glutathione], the kobs in data set [5] was 0.89 M⁻¹ s⁻¹.
On to `O=C(O)c1ccc2nc(-c3cc(Cl)cc(Cl)c3)oc2c1` [tafamidis], for which the “% Fibril formation” value at Transthyretin (TTR) (TTR:Compound ratio 1:1) stood at 29 ± 5%; on Transthyretin (TTR) (TTR:Compound ratio 1:2), 1 ± 5%.
As for `N[C@@H](CS)C(=O)O` [Cysteine], the kobs in data set [5] was 2.9 M⁻¹ s⁻¹.
Turning to `OB(O)c1ccccc1` [PBA, phenylboronic acid], in data set [1], the “kmonoanion (rel)” value came out at 1, the kmonoanion stood at 46 M⁻¹ s⁻¹ and the kobs is 2.4 M⁻¹ s⁻¹. Also, in data set [3], the “D-fructose, Ka” value is 128 ± 20 M⁻¹; the “D-glucose, Ka” value was 5 ± 1 M⁻¹; the “Neu5Ac, Ka” value stood at 13 ± 1 M⁻¹.
